Measurements as given in PubChem BioAssay (NCI).
Values joined by “and” are separate entries in the source; they are usually repeats but may differ in a detail not shown here. Equal entries are not always repeated.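 Values below derive from 48-hour exposures of cells grown in 96-well plates, with endpoints linearly interpolated between the two concentrations bracketing the appropriate inhibition level. GI50: concentration for 50% inhibition of growth. TGI denotes the concentration required for complete inhibition of growth.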

Legend:
Test in all cases: NCI-60 cell line screen, 48 h
PC-3 prostate = system: PC-3 prostate
SF-539 CNS = system: SF-539 CNS
HOP-92 NSCLC = system: HOP-92 NSCLC
HL-60(TB) leukemia = system: HL-60(TB) leukemia
EKVX NSCLC = system: EKVX NSCLC
BT-549 breast = system: BT-549 breast
HCT-15 colon = system: HCT-15 colon
MDA-MB-231 breast = system: MDA-MB-231 breast
COLO 205 colon = system: COLO 205 colon
RPMI-8226 leukemia = system: RPMI-8226 leukemia

SMILES | GI50 (PC-3 prostate) | TGI (PC-3 prostate) | GI50 (SF-539 CNS) | TGI (SF-539 CNS) | GI50 (HOP-92 NSCLC) | TGI (HOP-92 NSCLC) | GI50 (HL-60(TB) leukemia) | TGI (HL-60(TB) leukemia) | GI50 (EKVX NSCLC) | TGI (EKVX NSCLC) | GI50 (BT-549 breast) | TGI (BT-549 breast) | GI50 (HCT-15 colon) | TGI (HCT-15 colon) | GI50 (MDA-MB-231 breast) | TGI (MDA-MB-231 breast) | GI50 (COLO 205 colon) | TGI (COLO 205 colon) | GI50 (RPMI-8226 leukemia) | TGI (RPMI-8226 leukemia)
CN1CCN(Cc2ccc(NC(=O)c3cncc(C#Cc4c(N)ncc5ccc(C#N)cc45)c3)cc2C(F)(F)F)CC1 | 0.891 µM | 1.75 µM | 0.76 µM | 3.07 µM | 0.412 µM | 6.35 µM | 1.4 µM | 50 µM | 0.791 µM | 1.57 µM | 6.46 µM | 14.8 µM | 0.827 µM | 1.72 µM | 0.525 µM | 1.23 µM | 0.121 µM | 50 µM | 1.01 µM | 2.47 µM
OCc1ccc(-c2csc(-c3ccc(CO)o3)c2)o1 | 33.4 µM | > 100 µM | 99.7 µM | > 100 µM | 20.4 µM | 86.4 µM | 22.9 µM | > 100 µM | 21.3 µM | > 89.6 µM | 21.4 µM | > 80.7 µM | 32.8 µM | > 100 µM | 67.2 µM | > 100 µM | 4.36 µM | > 56 µM | 28.3 µM | > 100 µM
COc1cc2c(NCCCCCO)ncnc2c(OC)c1OC |  | > 100 µM |  | > 100 µM |  | > 100 µM |  | > 100 µM |  | > 100 µM |  | > 100 µM |  | > 100 µM |  | > 100 µM |  | > 100 µM |  | > 100 µM
O=C(Cn1c(C(=O)c2ccc(Cl)cc2)nc(-c2ccc(Cl)cc2)c1-c1ccc(Cl)cc1)c1ccccc1 | > 100 µM | > 100 µM | > 100 µM | > 100 µM | 12.9 µM | > 100 µM | > 100 µM | > 100 µM | > 100 µM | > 100 µM | > 100 µM | > 100 µM | > 100 µM | > 100 µM | > 100 µM | > 100 µM | > 100 µM | > 100 µM | > 100 µM | > 100 µM
COC(=O)c1ccc2nc(-c3cc4ccccc4n3C)n(CCCCOc3cc4c(cc3OC)C(=O)N3CCC[C@H]3C=N4)c2c1 | 0.457 µM | 10.3 µM | 0.881 µM | 2.43 µM | 0.347 µM | 2.77 µM | 0.273 µM |  | 2.41 µM | 6.46 µM | 0.284 µM | 1.13 µM | 2.41 µM | 8.94 µM | 0.366 µM | 2.17 µM | 0.575 µM | 1.46 µM | 0.345 µM | > 100 µM
CCn1c(-c2nonc2N)nc2c(C#CC(C)(C)O)ncc(OC3CCNCC3)c21 | 7.58 µM | > 25 µM | 2.95 µM | > 25 µM | > 25 µM | > 25 µM | 8.38 µM | 19 µM | > 25 µM | > 25 µM | 8.78 µM | > 25 µM | > 25 µM | > 25 µM | 20 µM | > 25 µM | 4.89 µM | > 21.9 µM | > 25 µM | > 25 µM
Fc1cc(F)c(F)c(S)c1F |  | 42.2 µM |  | > 100 µM |  | > 100 µM |  | > 100 µM |  | 55.2 µM |  | 52 µM |  | > 100 µM |  | 44.8 µM |  | > 100 µM |  | > 100 µM
N#CC(C#N)=NNc1ccc2cn[nH]c2c1 |  | > 100 µM |  | > 100 µM |  | > 100 µM |  | 45.3 µM |  | > 100 µM |  | > 100 µM |  | > 100 µM |  | > 100 µM |  | > 100 µM |  | 65.4 µM
CC1=C/C=C/C(=O)O[C@@H]([C@H](C)[C@H](O)[C@@H](C)NC(=O)C(C)C)[C@H](C)/C=C/C(C)=C/[C@H]2C=CCC[C@@]2(C)\C=C\1 | 0.654 µM and 0.223 µM | 13.2 µM | 0.0586 µM and 0.0588 µM | 5.3 µM | 0.059 µM and 0.0545 µM | 6.5 µM | 0.744 µM and 0.747 µM | 9.12 µM and 13.7 µM | 1.65 µM and 3.94 µM | 25.1 µM | 0.836 µM and 1.13 µM | 16.3 µM | 0.231 µM and 0.275 µM | 9.15 µM | 0.0186 µM | 0.106 µM | 0.322 µM and 0.189 µM | 7.33 µM | 0.705 µM and 0.703 µM | 12.3 µM
CNS(=O)(=O)OCC1OC(n2cnc3cncnc32)C(O)C1O (centres undefined) | > 100 µM | > 100 µM | > 100 µM | > 100 µM | > 100 µM | > 100 µM | > 100 µM | > 100 µM | > 100 µM | > 100 µM | > 100 µM | > 100 µM | > 100 µM | > 100 µM | > 100 µM | > 100 µM | > 100 µM | > 100 µM | > 100 µM | > 100 µM
C[C@@H](N)COc1ccc(-c2cnc3ccc(N[C@H](C)c4cccc(F)c4)nn23)cc1 | 1.62 µM | 9.39 µM | 1.52 µM | 2.86 µM | 0.338 µM | 1.89 µM | 1.81 µM | 3.74 µM | 2.71 µM | 12.6 µM | 1.68 µM | 3.33 µM | 2.32 µM | 10.1 µM | 1.48 µM | 3.19 µM | 1.1 µM | 2.96 µM | 1.81 µM | 5.3 µM
C/C(CCC(=O)O)=N/Nc1ccc([N+](=O)[O-])cc1 | 11.5 µM | > 100 µM | 3.18 µM | 14.8 µM | > 100 µM | > 100 µM | 1.51 µM | > 100 µM | 28.5 µM | > 100 µM | 42.3 µM | > 100 µM | 3.35 µM | > 100 µM | 7.16 µM | > 100 µM | 3.43 µM | > 100 µM | 57.7 µM | > 100 µM
CC(c1cc(Cl)ccc1O)c1cc(Cl)ccc1O | 3.73 µM | 15 µM | 3.52 µM | 12.9 µM | 1.71 µM | 5.35 µM | 2.55 µM | 5.75 µM | 2.98 µM | 13.4 µM | 4.58 µM | 16.9 µM | 4.54 µM | 16.6 µM | 3.88 µM | 16.2 µM | 17.6 µM | 33.5 µM | 3.73 µM | 9.89 µM
